Type in all cases: cell-based
One assay has as its system MDA-MB-231 cells. Kind of assay: Tumor cell proliferation (Alamar Blue), MDA-MB-231. The note with it: Homo sapiens, MDA-MB-231, 72 h. As to the method: (§1) Human tumor cells (e.g., HCT116 or MDA-MB-231 cells), are seeded in a Costar 96-well plate at 3.0×10^3 cells/well and grown in 150 μl of RPMI complete media (Invitrogen Corporation, Grand Island, N.Y.) containing 10% fetal bovine serum (Hyclone, Logan, Utah) at 37° C. for 16 h in an incubator with 5% CO2. To each well, 50 μl of additional growth media containing 40 μM to 18 nM concentrations of compound with 0.4% DMSO is added. Cells are grown for another 72 h at 37° C. with 5% CO2. 20 μl of Alamar Blue (Trek Diagnostic Systems, Inc., Cleveland, Ohio) reagent is added to each well and incubated for 3 h at 37° C. Plates are read in a SpectraMax Gemini (Molecular Devices, Calif.) with 544 nm excitation and 590 nm emission wavelength. IC50 values are determined by linear regression analysis of log drug concentration versus percent inhibition.
(In general: Resazurin is reduced to fluorescent resorufin, in cell work by metabolically active cells.)

The next assay concerns HCT116 cells. Briefly: Tumor cell proliferation (Alamar Blue), HCT116. Particulars: Homo sapiens, HCT-116, 72 h. As to the method:
as §1

The test system of assay [1] is VEGF stimulated Phospho-ERK in HUVEC. Briefly: Growth factor stimulated p-ERK assay in HUVECs (VEGF stimulation, ERK1/2 Bioplex). The note with it: Homo sapiens, compound 2 hrs, then 50 ng/ml VEGF 10 min. As for the experimental part: Growth Factor Stimulated p-ERK assay in HUVECs
Exponentially growing human endothelial HUVECs cells (human umbilical vein endothelial cells, cat# CC-2517, Cambrex, Walkersville, Md.) were seeded at twenty five thousand cells/well in 96 well plates in EBM-2 MV medium with growth factors (cat# CC-3202, Cambrex) and grown at 37° C. in 5% CO2. Sixteen hours post-plating, the cells were changed to serum-free medium (RPMI 1640 containing 0.1% BSA (bovine serum albumin) and compounds were added at different concentrations for 2 hrs, after which the cells were stimulated for 10 min with 50 ng/ml of either VEGF (vascular endothelial growth factor, Protein Sciences, Meriden, Conn.) or bFGF (basic fibroblast growth factor cat# PHG0026, Biosource International, Camarillo, Calif.). The rest of the assay was performed per manufacturer indications for the ERK½ Bioplex assay (cat#171-304004, Bio-Rad, Hercules, Calif.). After removing culture medium by aspiration, the cells were quickly rinsed with 100 μl of cell wash buffer A to stop treatment reaction. Eighty microliters of cell lysis buffer were then immediately added to each well of the 96 well plate which was put on ice. Cells in each well were lysed by pipetting up and down 5 times with a multi-channel pipet. The plate was then agitated on a microtiter plate shaker at 300 rpm for 20 min at 4° C. Cellular debris were pelleted by centrifugation at 4500 g for 15 min at 4° C. and the supernatant was collected. Forty five microliters of supernatant was diluted with an equal volume of Bio-Plex phosphoprotein assay Buffer B, The coupled and color coated beads were added into a 96 well filter plate, and the prepared lysates were added. The beads and lysate mixture was incubated at room temperature for 15-18 hrs. The following day, the plate was vacuum-filtered and then washed 3×. Twenty-five microliters of detection antibody solution were added to each well and the plate was then incubated for 30 min at room temperature. The plate was then vaccum-filtered and washed as described previously. Fifty microliters of streptavidin-PE solution was added to each well, the plate was incubated for 10 min at room temperature and then was then vaccum-filtered and washed as described above. One hundred twenty-five microliters of resuspension buffer was added to each well and data were acquired on the Luminex 100 instrument (Bio-Rad).

Usually IC50 stands for the concentration that gives 50% inhibition. High values mean lower potency, low ones higher potency. The term inhibition denotes the change of the read-out against control, counted positive when it falls. A low value points to a weak effect.

Regarding `Nc1ncnn2cc(C(=O)NCC(F)(F)F)c(-c3ccc(NC(=O)Nc4cc(C(F)(F)F)ccn4)cc3)c12` [Example 93, 4-amino-N-(2,2,2-trifluoroethyl)-5-{4-[({[4-(trifluoromethyl)pyridin-2-yl]amino}carbonyl)amino]phenyl}pyrrolo[2,1-f][1,2,4]triazine-6-carboxamide], the IC50 is more than 0.5 µM with MDA-MB-231 cells, less than 1.5 µM in the assay with MDA-MB-231 cells (bounds given in μM) and less than 0.5 µM with HCT116 cells. In assay [1] (@ 100 nM), the inhibition at 0.1 µM is less than 50%. The inhibition at 1 µM in assay [1] (@ 1 μM) was more than 50%.

As for `CC(C)(CN1CCOCC1)NC(=O)c1cn2ncnc(N)c2c1-c1ccc(NC(=O)Nc2cc(C(F)(F)F)ccc2Cl)cc1` [Example 149, 4-amino-5-{4-[({[2-chloro-5-(trifluoromethyl)phenyl]amino}carbonyl)amino]phenyl}-N-(1,1-dimethyl-2-morpholin-4-ylethyl)pyrrolo[2,1-f][1,2,4]triazine-6-carboxamide], the IC50 in the assay with MDA-MB-231 cells is more than 0.5 µM; in the assay on MDA-MB-231 cells (bounds given in μM) it was less than 1.5 µM; in the assay on HCT116 cells (bounds given in μM), 1.5 to 5 µM.

On to `N#Cc1cn2ncnc(N)c2c1-c1ccc(NC(=O)Nc2ccnc(C(F)(F)F)c2)cc1` [Example 153, N-[4-(4-amino-6-cyanopyrrolo[2,1-f][1,2,4]triazin-5-yl)phenyl]-N′-[2-(trifluoromethyl)pyridin-4-yl]urea], for which the IC50 in the assay on MDA-MB-231 cells (bounds given in μM) and in the assay on HCT116 cells (bounds given in μM) was 5 to 10 µM in each case.

`Nc1ncnn2cc(-c3cnco3)c(-c3ccc(NC(=O)Nc4cc(C(F)(F)F)ccn4)cc3)c12` [Example 156, N-{4-[4-amino-6-(1,3-oxazol-5-yl)pyrrolo[2,1-f][1,2,4]triazin-5-yl]phenyl}-N′-[4-(trifluoromethyl)pyridin-2-yl]urea]: the IC50 was less than 0.5 µM with MDA-MB-231 cells, more than 0.5 µM in the assay on HCT116 cells and less than 1.5 µM in the assay with HCT116 cells (bounds given in μM).

For `CC(C)(C)c1cc(NC(=O)Nc2ccc(-c3c(C#N)cn4ncnc(N)c34)cc2)on1` [Example 161, N-[4-(4-amino-6-cyanopyrrolo[2,1-f][1,2,4]triazin-5-yl)phenyl]-N′-(3-tert-butylisoxazol-5-yl)urea], the IC50 in the assay with MDA-MB-231 cells (bounds given in μM) is 1.5 to 5 µM; with HCT116 cells it was more than 0.5 µM; in the assay on HCT116 cells (bounds given in μM), less than 1.5 µM.

`COCc1cn2ncnc(N)c2c1-c1ccc(NC(=O)Nc2cc(C(C)(C)C)nn2-c2ccc(F)cc2)cc1` [Example 217, N-{4-[4-amino-6-(methoxymethyl)pyrrolo[2,1-f][1,2,4]triazin-5-yl]phenyl}-N′-[3-tert-butyl-1-(4-fluorophenyl)-1H-pyrazol-5-yl]urea]: the IC50 with MDA-MB-231 cells was more than 0.5 µM; in the assay with MDA-MB-231 cells (bounds given in μM), less than 1.5 µM; in the assay on HCT116 cells (bounds given in μM), 1.5 to 5 µM.

With `Nc1ncnn2cc(CN3CCOCC3)c(-c3ccc(NC(=O)Nc4cc(C(F)(F)F)ccn4)cc3)c12` [Example 225, N-{4-[4-amino-6-(morpholin-4-ylmethyl)pyrrolo[2,1-f][1,2,4]triazin-5-yl]phenyl}-N′-[4-(trifluoromethyl)pyridin-2-yl]urea], the IC50 in the assay on MDA-MB-231 cells (bounds given in μM) and in the assay with HCT116 cells (bounds given in μM) was 1.5 to 5 µM in each case.

Consider `CCOC(=O)c1coc(-c2cn3ncnc(N)c3c2-c2ccc(NC(=O)Nc3cc(C(F)(F)F)ccn3)cc2)n1` [Example 232, ethyl 2-(4-amino-5-{4-[({[4-(trifluoromethyl)pyridin-2-yl]amino}carbonyl)amino]phenyl}pyrrolo[2,1-f][1,2,4]triazin-6-yl)-1,3-oxazole-4-carboxylate], for which the IC50 in the assay on MDA-MB-231 cells (bounds given in μM) and in the assay on HCT116 cells (bounds given in μM) was 1.5 to 5 µM each time.

Regarding `Nc1ncnn2cc(-c3ncco3)c(-c3ccc(NC(=O)Nc4cc(C(F)(F)F)ccn4)cc3)c12` [Example 235, N-{4-[4-amino-6-(1,3-oxazol-2-yl)pyrrolo[2,1-f][1,2,4]triazin-5-yl]phenyl}-N′-[4-(trifluoromethyl)pyridin-2-yl]urea], the IC50 in the assay with MDA-MB-231 cells is more than 0.5 µM; in the assay with MDA-MB-231 cells (bounds given in μM), less than 1.5 µM; with HCT116 cells, less than 0.5 µM.

Consider `CCOC(=O)c1coc(-c2cn3ncnc(N)c3c2-c2ccc(NC(=O)Nc3cc(C(F)(F)F)ccc3F)cc2)n1` [Example 237, ethyl 2-(4-amino-5-{4-[({[2-fluoro-5-(trifluoromethyl)phenyl]amino}carbonyl)amino]phenyl}pyrrolo[2,1-f][1,2,4]triazin-6-yl)-1,3-oxazole-4-carboxylate], for which the IC50 with MDA-MB-231 cells (bounds given in μM) was 1.5 to 5 µM; with HCT116 cells, less than 0.5 µM.

In the case of `Nc1ncnn2cc(-c3nc(CO)co3)c(-c3ccc(NC(=O)Nc4cc(C(F)(F)F)ccc4F)cc3)c12` [Example 241, N-(4-{4-amino-6-[4-(hydroxymethyl)-1,3-oxazol-2-yl]pyrrolo[2,1-f][1,2,4]triazin-5-yl}phenyl)-N′-[2-fluoro-5-(trifluoromethyl)phenyl]urea], the IC50 in the assay on MDA-MB-231 cells (bounds given in μM) was 1.5 to 5 µM; in the assay with HCT116 cells, more than 0.5 µM; in the assay on HCT116 cells (bounds given in μM) it was less than 1.5 µM.

As for `CCOC(=O)c1cn2ncnc(N)c2c1-c1ccc(NC(=O)Nc2cc(C(F)(F)F)ccn2)c(F)c1` [Example 242, ethyl 4-amino-5-{3-fluoro-4-[({[4-(trifluoromethyl)pyridin-2-yl]amino}carbonyl)amino]phenyl}pyrrolo[2,1-f][1,2,4]triazine-6-carboxylate], the IC50 with MDA-MB-231 cells (bounds given in μM) and in the assay on HCT116 cells (bounds given in μM) was 1.5 to 5 µM in each case.

In the case of `COCCOCc1cn2ncnc(N)c2c1-c1ccc(NC(=O)Nc2cc(C(C)(C)C)nn2-c2ccc(F)cc2)cc1` [Example 248, N-(4-{4-amino-6-[(2-methoxyethoxy)methyl]pyrrolo[2,1-f][1,2,4]triazin-5-yl}phenyl)-N′-[3-tert-butyl-1-(4-fluorophenyl)-1H-pyrazol-5-yl]urea], the IC50 in the assay on MDA-MB-231 cells is more than 0.5 µM; in the assay with MDA-MB-231 cells (bounds given in μM), less than 1.5 µM; in the assay with HCT116 cells (bounds given in μM) it was 1.5 to 5 µM.

`COCc1cn2ncnc(N)c2c1-c1ccc(NC(=O)Nc2cc(C(F)(F)F)ccc2F)c(F)c1` [Example 254, N-{4-[4-amino-6-(methoxymethyl)pyrrolo[2,1-f][1,2,4]triazin-5-yl]-2-fluorophenyl}-N′-[2-fluoro-5-(trifluoromethyl)phenyl]urea]: the IC50 with MDA-MB-231 cells (bounds given in μM) and with HCT116 cells (bounds given in μM) was 1.5 to 5 µM each time.

`N#CCc1cn2ncnc(N)c2c1-c1ccc(NC(=O)Nc2cc(C(F)(F)F)ccn2)c(F)c1` [Example 255]: the IC50 was more than 0.5 µM in the assay on MDA-MB-231 cells, less than 1.5 µM with MDA-MB-231 cells (bounds given in μM) and 1.5 to 5 µM in the assay on HCT116 cells (bounds given in μM).

Consider `N#Cc1cn2ncnc(N)c2c1-c1ccc(NC(=O)Nc2cc(C(F)(F)F)ccc2F)c(F)c1` [Example 256, N-[4-(4-amino-6-cyanopyrrolo[2,1-f][1,2,4]triazin-5-yl)-2-fluorophenyl]-N′-[2-fluoro-5-(trifluoromethyl)phenyl]urea], for which the IC50 was more than 0.5 µM in the assay with MDA-MB-231 cells, less than 1.5 µM in the assay on MDA-MB-231 cells (bounds given in μM), more than 0.5 µM in the assay on HCT116 cells and less than 1.5 µM with HCT116 cells (bounds given in μM).

Regarding `Nc1ncnn2cc(-c3nc(CN4CCOCC4)co3)c(-c3ccc(NC(=O)Nc4cc(C(F)(F)F)ccc4F)cc3)c12` [Example 257, N-(4-{4-amino-6-[4-(morpholin-4-ylmethyl)-1,3-oxazol-2-yl]pyrrolo[2,1-f][1,2,4]triazin-5-yl}phenyl)-N′-[2-fluoro-5-(trifluoromethyl)phenyl]urea], the IC50 in the assay with MDA-MB-231 cells was more than 0.5 µM; in the assay with MDA-MB-231 cells (bounds given in μM) it was less than 1.5 µM; in the assay on HCT116 cells it was more than 0.5 µM; in the assay on HCT116 cells (bounds given in μM), less than 1.5 µM.

Source of the values: patent US7563791B2, “Pyrrolotriazine derivatives useful for treating hyper-proliferative disorders and diseases associated with angiogenesis” (Bayer Pharmaceuticals Corporation, priority 2004, dated 2009).
